Results taken from patent US4588822A, “Physiologically active substances SS 12538, their preparation and a novel microorganism producing same” (SS Pharmaceutical Co., Ltd., priority 1982, dated 1986).
Converted amounts (≈) assume the structure as drawn. Read-outs that look alike come from different tables or passages of the source.

What was measured:
[1] = test system: Microsporum gypseum IFO 8231; assay: Antifungal activity (MIC), Microsporum gypseum IFO 8231; type: cell-based; settings: Nannizzia gypsea
Excerpt: (§1) Minimum inhibitory concentration (MIC) of the physiologically active substance SS 12538A against various microorganisms are shown in FIG. 2.
(§2) Minimum inhibitory concentration (MIC) of the physiologically active substance SS 12538B against various microorganisms are shown in Table 4 below.
(§3) Minimum inhibitory concentration (MIC) of the physiologically active substance SS 12538C against various microorganisms are shown in Table 6 below.

[2] = test system: Aspergillus niger ATCC 9642; assay: Antifungal activity (MIC), Aspergillus niger ATCC 9642; type: cell-based
Excerpt: as §1, §2, §3

[3] = test system: Candida albicans ATCC 10231; assay: Antifungal activity (MIC), Candida albicans ATCC 10231; type: cell-based
Excerpt: as §1, §2, §3

[4] = test system: Staphylococcus aureus ATCC 6538P; assay: Antibacterial activity (MIC), Staphylococcus aureus ATCC 6538P; type: cell-based; settings: ATCC6538P, read-out: Minimum Inhibitory Concentration MIC
Excerpt: as §1, §2, §3

[5] = test system: Micrococcus lysodeikticus IFO 3333; assay: Antibacterial activity (MIC), Micrococcus lysodeikticus IFO 3333; type: cell-based; settings: Micrococcus luteus
Excerpt: as §1, §2, §3

[6] = test system: Escherichia coli 0-1; assay: Antibacterial activity (MIC), Escherichia coli 0-1; type: cell-based
Excerpt: as §1, §2, §3

[7] = test system: Klebsiella pneumoniae ATCC 10031; assay: Antibacterial activity (MIC), Klebsiella pneumoniae ATCC 10031; type: cell-based
Excerpt: as §1, §2, §3

[8] = test system: Staphylococcus epidermidis ATCC 12228; assay: Antibacterial activity (MIC), Staphylococcus epidermidis ATCC 12228; type: cell-based
Excerpt: as §1, §2, §3

[9] = test system: Bacillus subtilis ATCC 6633; assay: Antibacterial activity (MIC), Bacillus subtilis ATCC 6633; type: cell-based
Excerpt: as §1, §2, §3

[10] = test system: Saccharomyces cerevisiae ATCC 9763; assay: Antifungal activity (MIC), Saccharomyces cerevisiae ATCC 9763; type: cell-based
Excerpt: as §1, §2, §3

[11] = Solubilities in solvents; type: physicochemical; settings: for Solubility in organic solvents: chloroform, ethyl acetate, acetone, ethyl ether, ethanol, methanol, pyridine, benzene and dimethyl sulfoxide
[12] = test system: Bacillus cereus IID 871; assay: Antibacterial activity (MIC), Bacillus cereus IID 871; type: cell-based
Excerpt: as §1, §2, §3

[13] = test system: mongrel dogs; assay: Vasodilating activity in anesthetized mongrel dogs (coronary blood flow, blood pressure, heart rate after dosing into the vein); type: in vivo, dog (mongrel); settings: for titer relative to dipyridamol: compared with currently employed dipyridamol; for Blood Pressure Duration / Blood Pressure Reduction / Coronary Blood Flow Duration / Coronary Blood Flow Increase / Heart Rate Reduction: i.v., dog
Experimental: 4 male mongrel dogs, weighing 15-25 Kg, were provided as laboratory animals and were anesthesized with sodium pentobarbital (30 mg/kg i.v.). Thereafter, the left circumflex coronary artery was exposed under artificial respiration and a probe of an electromagnetic flow meter was attached. A polyethylene cannula was inserted into the left femoral artery.
Test compounds were dissolved in a small amount of dimethyl sulfoxide and diluted with a sterilized physiological saline for injection, followed by dosing it into the vein.
Coronary blood was measured by means of the electromagnetic flow meter and the blood pressure was determined from the polyethylene cannule through a pressure transducer. Also, heart rate was measured by an instantaneous pulse meter from RR intervals of an electrocardiogram. Each parameter was recorded on a polygraph. Changes of these parameters prior to and after administration of each compound were observed.
In accordance with the procedure as used with SS 12538A, the vasodilating activity of SS 12538B was determined.
In the same manner as in the case of SS 12538A, the vasodilating activity of SS 12538C was determined with the results shown in Table 5.

[14] = test system: Trichophyton mentagrophytes QM 248; assay: Antifungal activity (MIC), Trichophyton mentagrophytes QM 248; type: cell-based
Excerpt: as §1, §2, §3

[15] = test system: Pseudomonas aeruginosa IFO 13736; assay: Antibacterial activity (MIC), Pseudomonas aeruginosa IFO 13736; type: cell-based
Excerpt: as §1, §2, §3

In the case of CC=C(C)C(O)C(C)C=C(C)C=CCC(C)=CCc1oc(OC)c(CC)c(=O)c1C (stereo not drawn) [SS 12538C], the MIC ([1]; IFO8231, read-out: Minimum Inhibitory Concentration MIC) is reported as greater than 100 µg/mL, the MIC ([2]; Aspergillus niger, ATCC9642, read-out: Minimum Inhibitory Concentration MIC) is reported as greater than 100 µg/mL and the MIC ([3]; Candida albicans, ATCC10231, read-out: Minimum Inhibitory Concentration MIC) is reported as greater than 100 µg/mL. For the same compound, the MIC ([4]; Staphylococcus aureus) was 100 µg/mL (≈ 241 µM), the MIC ([5]; IFO3333, read-out: Minimum Inhibitory Concentration MIC) was 12.5 µg/mL (≈ 30.2 µM) and the MIC ([6]; Escherichia coli, 01, read-out: Minimum Inhibitory Concentration MIC) was greater than 100 µg/mL. The MIC ([7]; Klebsiella pneumoniae, ATCC10031, read-out: Minimum Inhibitory Concentration MIC) was greater than 100 µg/mL, the MIC ([8]; Staphylococcus epidermidis, ATCC12228, read-out: Minimum Inhibitory Concentration MIC) was 25 µg/mL (≈ 60.3 µM) and the MIC ([9]; Bacillus subtilis, ATCC6633, read-out: Minimum Inhibitory Concentration MIC) was greater than 100 µg/mL. For the same compound, the MIC ([10]; Saccharomyces cerevisiae, ATCC9763, read-out: Minimum Inhibitory Concentration MIC) was greater than 100 µg/mL, the “Solubility in organic solvents” value [11] was “Soluble” and the Solubility in water [11] was “sparingly soluble”. For the same compound, the MIC ([12]; Bacillus cereus, IID871, read-out: Minimum Inhibitory Concentration MIC) was 25 µg/mL (≈ 60.3 µM), the “titer relative to dipyridamol” value [13] was “about 3 times” and the “Blood Pressure Duration” value ([13]; dose 10 μg/kg) was 0 min. For the same compound, the “Blood Pressure Reduction” value ([13]; dose 10 μg/kg) was 0%, the “Coronary Blood Flow Duration” value ([13]; dose 10 μg/kg) was 5 min and the “Coronary Blood Flow Increase” value ([13]; dose 10 μg/kg) was 30.0%. For the same compound, the “Heart Rate Reduction” value ([13]; dose 10 μg/kg) was 0%, the “Blood Pressure Duration” value ([13]; dose 30 μg/kg) was 10 min and the “Blood Pressure Reduction” value ([13]; dose 30 μg/kg) was 2.9%. For the same compound, the “Coronary Blood Flow Duration” value ([13]; dose 30 μg/kg) was 10 min, the “Coronary Blood Flow Increase” value ([13]; dose 30 μg/kg) was 60.0% and the “Heart Rate Reduction” value ([13]; dose 30 μg/kg) was 0%. The “Blood Pressure Duration” value ([13]; dose 100 μg/kg) was 15 min, the “Blood Pressure Reduction” value ([13]; dose 100 μg/kg) was 8.5% and the “Coronary Blood Flow Duration” value ([13]; dose 100 μg/kg) was 15 min. For the same compound, the “Coronary Blood Flow Increase” value ([13]; dose 100 μg/kg) was 130.0%, the “Heart Rate Reduction” value ([13]; dose 100 μg/kg) was 10.1% and the MIC ([14]; Trichophyton mentagrophytes, QM248, read-out: Minimum Inhibitory Concentration MIC) was 50 µg/mL (≈ 121 µM). The MIC ([15]; Pseudomonas aeruginosa, IFO13736, read-out: Minimum Inhibitory Concentration MIC) was greater than 100 µg/mL.

In the case of CC=C(C)C(O)C(C)C=C(C)C=CCC(C)=CCc1oc(OC)cc(=O)c1C (stereo not drawn) [SS 12538B], the MIC ([1]; IFO8231, Microsporum gypseum IFO 8231, read-out: Minimum Inhibitory Concentration MIC) is reported as 100 µg/mL (≈ 259 µM), the MIC ([2]; ATCC9642, Aspergillus niger ATCC 9642, read-out: Minimum Inhibitory Concentration MIC) is reported as greater than 100 µg/mL and the MIC ([3]; ATCC10231, Candida albicans ATCC 10231, read-out: Minimum Inhibitory Concentration MIC) is reported as greater than 100 µg/mL. For the same compound, the MIC ([4]; Staphylococcus aureus ATCC 6538P) was 25 µg/mL (≈ 64.7 µM), the MIC ([5]; IFO3333, Micrococcus lysodeikticus IFO 3333, read-out: Minimum Inhibitory Concentration MIC) was 25 µg/mL (≈ 64.7 µM) and the MIC ([6]; 01, Escherichia coli 0-1, read-out: Minimum Inhibitory Concentration MIC) was greater than 100 µg/mL. The MIC ([7]; ATCC10031, Klebsiella pneumoniae ATCC 10031, read-out: Minimum Inhibitory Concentration MIC) was greater than 100 µg/mL, the MIC ([8]; ATCC12228, Staphylococcus epidermidis ATCC 12228, read-out: Minimum Inhibitory Concentration MIC) was 25 µg/mL (≈ 64.7 µM) and the MIC ([9]; ATCC6633, Bacillus subtilis ATCC 6633, read-out: Minimum Inhibitory Concentration MIC) was 50 µg/mL (≈ 129 µM). The MIC ([10]; ATCC9763, Saccharomyces cerevisiae ATCC 9763, read-out: Minimum Inhibitory Concentration MIC) was greater than 100 µg/mL, the “Solubility in organic solvents” value [11] was “Soluble” and the Solubility in water [11] was “sparingly soluble”. For the same compound, the MIC ([12]; IID871, Bacillus cereus IID 871, read-out: Minimum Inhibitory Concentration MIC) was 50 µg/mL (≈ 129 µM), the “titer relative to dipyridamol” value [13] was “about 30 times” and the “Blood Pressure Duration” value ([13]; dose 3 μg/kg) was 6 min. The “Blood Pressure Reduction” value ([13]; dose 3 μg/kg) was 7.5%, the “Coronary Blood Flow Duration” value ([13]; dose 3 μg/kg) was 10 min and the “Coronary Blood Flow Increase” value ([13]; dose 3 μg/kg) was 103.3%. For the same compound, the “Heart Rate Reduction” value ([13]; dose 3 μg/kg) was 2.0%, the “Blood Pressure Duration” value ([13]; dose 10 μg/kg) was 20 min and the “Blood Pressure Reduction” value ([13]; dose 10 μg/kg) was 27.7%. For the same compound, the “Coronary Blood Flow Duration” value ([13]; dose 10 μg/kg) was 15 min, the “Coronary Blood Flow Increase” value ([13]; dose 10 μg/kg) was 143.8% and the “Heart Rate Reduction” value ([13]; dose 10 μg/kg) was 13.0%. The MIC ([14]; QM248, Trichophyton mentagrophytes QM 248, read-out: Minimum Inhibitory Concentration MIC) was 25 µg/mL (≈ 64.7 µM) and the MIC ([15]; IFO13736, Pseudomonas aeruginosa IFO 13736, read-out: Minimum Inhibitory Concentration MIC) was greater than 100 µg/mL.
